The results in this text go back to patent publication US7964624B1, “Inhibitors of serine proteases” (priority 2005, dated 2011).

In this assay the target is T1, HCV NS3 protease domain (Hepatitis C virus genotype 1b, UniProt Q9WMX2).
T1 construct: The first 181 amino acids of NS3 (residues 1027-1207 of the viral polyprotein); hexa-histidine (C); made in house; host or cells: E. coli BL21/DE3 pLysS
The experiment in a line: biochemical. As to conditions: Enzyme Assay 1 (HCV NS3 Protease Domain Peptide Cleavage Assay) activity, apparent Ki class.

T1 sequence (Q9WMX2 1027-1207, other chains not shown): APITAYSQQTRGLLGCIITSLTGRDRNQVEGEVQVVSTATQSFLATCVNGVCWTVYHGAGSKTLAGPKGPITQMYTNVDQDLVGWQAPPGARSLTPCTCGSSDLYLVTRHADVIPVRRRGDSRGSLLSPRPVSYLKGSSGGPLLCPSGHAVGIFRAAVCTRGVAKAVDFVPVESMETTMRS

For the molecule `CCC[C@H](NC(=O)[C@@H]1C[C@]2(CC(c3cccc(Cl)c3)=NO2)CN1C(=O)[C@@H](NC(=O)CCc1ccc(F)cc1)C(C)(C)C)C(=O)C(=O)NC1CC1` [Compound 7], the Ki is more than 0.5 µM. The result for `CCC[C@H](NC(=O)[C@@H]1C[C@]2(CC(c3ccc(OC)c(OC4CCCC4)c3)=NO2)CN1C(=O)[C@@H](NC(=O)O[C@H]1CCOC1)C(C)(C)C)C(=O)C(=O)NC1CC1` [Compound 8] reads more than 0.5 µM. The result for `CCC[C@H](NC(=O)[C@@H]1C[C@]2(CC(c3ccc(C)c(F)c3)=NO2)CN1C(=O)O[C@H]1CCOC1)C(=O)C(=O)NC1CC1` [Compound 11] reads more than 0.5 µM; that for `CCC[C@H](NC(=O)[C@@H]1C[C@]2(CC(c3cccc(Cl)c3)=NO2)CN1C(=O)[C@@H](NC(=O)OCC1CCCC1)C(C)(C)C)C(=O)C(=O)NC1CC1` [Compound 14], more than 0.5 µM.

`CCC[C@H](NC(=O)[C@@H]1C[C@]2(CC(c3ccc(OC)c(Cl)c3)=NO2)CN1C(=O)[C@@H](NC(=O)O[C@H]1CCOC1)C(C)(C)C)C(=O)C(=O)NC1CC1` [Compound 15]: the Ki lay within 0.1 to 0.5 µM. Under `CCC[C@H](NC(=O)[C@@H]1C[C@]2(CC(c3ccc(OC)cc3)=NO2)CN1C(=O)[C@@H](NC(=O)CC1CCOCC1)C(C)(C)C)C(=O)C(=O)NC1CC1` [Compound 16] stands more than 0.5 µM; under `CCC[C@H](NC(=O)[C@@H]1C[C@]2(CC(c3cccc(Cl)c3)=NO2)CN1C(=O)[C@@H](NC(=O)C1(O)CCCC1)C(C)(C)C)C(=O)C(=O)NC1CC1` [Compound 20], more than 0.5 µM. Under `CCC[C@H](NC(=O)[C@@H]1C[C@]2(CC(c3cccc(F)c3)=NO2)CN1C(=O)[C@@H](NC(=O)O[C@H]1CCOC1)C(C)(C)C)C(=O)C(=O)NC1CC1` [Compound 24] stands 0.1 to 0.5 µM; under `CCC[C@H](NC(=O)[C@@H]1C[C@]2(CC(c3cccc(Cl)c3)=NO2)CN1C(=O)[C@@H](NC(=O)OCC1CCC1)C(C)(C)C)C(=O)C(=O)NC1CC1` [Compound 27], 0.1 to 0.5 µM; under `CCC[C@H](NC(=O)[C@@H]1C[C@]2(CC(c3ccc(Cl)c(Cl)c3)=NO2)CN1C(=O)[C@@H](NC(=O)O[C@H]1CCOC1)C(C)(C)C)C(=O)C(=O)NC1CC1` [Compound 32], 0.1 to 0.5 µM.

With `CCC[C@H](NC(=O)[C@@H]1C[C@]2(CC(c3cccc(Cl)c3)=NO2)CN1C(=O)[C@@H](NC(=O)NC1CCCCC1)C(C)(C)C)C(=O)C(=O)NC1CC1` [Compound 33], the Ki is less than 0.1 µM. For the molecule `CCC[C@H](NC(=O)[C@@H]1C[C@]2(CC(c3ccc(C)c(C)c3)=NO2)CN1C(=O)[C@@H](NC(=O)O[C@H]1CCOC1)C(C)(C)C)C(=O)C(=O)NC1CC1` [Compound 36], the Ki was 0.1 to 0.5 µM. The result for `CCC[C@H](NC(=O)[C@@H]1C[C@]2(CC(c3cccc(Cl)c3)=NO2)CN1C(=O)[C@@H](NC(=O)CC1CCOCC1)C1CCCCC1)C(=O)C(=O)NC1CC1` [Compound 37] reads more than 0.5 µM; that for `CCC[C@H](NC(=O)[C@@H]1C[C@]2(CC(c3cccc(Cl)c3)=NO2)CN1C(=O)[C@@H](NC(=O)OCc1ccccc1Cl)C(C)(C)C)C(=O)C(=O)NC1CC1` [Compound 39], 0.1 to 0.5 µM. Under `CCC[C@H](NC(=O)[C@@H]1C[C@]2(CC(c3cncc(Br)c3)=NO2)CN1C(=O)[C@@H](NC(=O)CC1CCCCC1)C(C)(C)C)C(=O)C(=O)NC1CC1` [Compound 41] stands less than 0.1 µM; under `CCC[C@H](NC(=O)[C@@H]1C[C@]2(CC(c3cccc(Cl)c3)=NO2)CN1C(=O)[C@@H](NC(=O)CCC(C)=O)C(C)(C)C)C(=O)C(=O)NC1CC1` [Compound 44], 0.1 to 0.5 µM; under `CCC[C@H](NC(=O)[C@@H]1C[C@]2(CC(c3ccc(CC)cc3)=NO2)CN1C(=O)O[C@H]1CCOC1)C(=O)C(=O)NC1CC1` [Compound 47], more than 0.5 µM. With `CCC[C@H](NC(=O)C1C[C@]2(CC(c3ccc4c(c3)OCO4)=NO2)CN1C(=O)c1ccc[nH]1)C(=O)C(=O)NC1CC1` (stereo partly shown) [Compound 51], the Ki is more than 0.5 µM. Under `CCC[C@H](NC(=O)C1C[C@]2(CC(c3ccc(C(F)(F)F)cc3)=NO2)CN1C(=O)[C@@H](NC(=O)O[C@H]1CCOC1)C(C)(C)C)C(=O)C(=O)NC1CC1` (stereo partly shown) [Compound 52] stands 0.1 to 0.5 µM; under `CCC[C@H](NC(=O)[C@@H]1C[C@]2(CC(c3ccccc3)=NO2)CN1C(=O)CC1CCN(Cc2c(Cl)cccc2Cl)CC1)C(=O)C(=O)NC1CC1` [Compound 53], more than 0.5 µM. For `CCC[C@H](NC(=O)[C@@H]1C[C@]2(CC(c3ccc(Cl)cc3)=NO2)CN1C(=O)[C@@H](NC(=O)CC1CCCCC1)C(C)(C)C)C(=O)C(=O)NC1CC1` [Compound 55], the Ki is 0.1 to 0.5 µM.

Regarding `CCC[C@H](NC(=O)[C@@H]1C[C@]2(CC(C3CCCC3)=NO2)CN1C(=O)[C@@H](NC(=O)O[C@H]1CCOC1)C(C)(C)C)C(=O)C(=O)NC1CC1` [Compound 70], the Ki was more than 0.5 µM.

`CCC[C@H](NC(=O)[C@@H]1C[C@]2(CC(c3cccc(Cl)c3)=NO2)CN1C(=O)[C@@H](NC(=O)[C@H]1COc2ccccc2O1)C(C)(C)C)C(=O)C(=O)NC1CC1` [Compound 71]: the Ki was more than 0.5 µM. Under `CCC[C@H](NC(=O)[C@@H]1C[C@]2(CC(c3cccc(Cl)c3)=NO2)CN1C(=O)[C@@H](NC(=O)CC1CCCC1)C(C)(C)C)C(=O)C(=O)NC1CC1` [Compound 72] stands 0.1 to 0.5 µM. Under `CCC[C@H](NC(=O)[C@@H]1C[C@]2(CC(c3cccc(Cl)c3)=NO2)CN1C(=O)[C@@H](NC(=O)Cc1sc(C)nc1C)C(C)(C)C)C(=O)C(=O)NC1CC1` [Compound 75] stands 0.1 to 0.5 µM; under `CCC[C@H](NC(=O)[C@@H]1C[C@]2(CC(c3cccc(Cl)c3)=NO2)CN1C(=O)[C@@H](NC(=O)NC1CC1)C(C)(C)C)C(=O)C(=O)NC1CC1` [Compound 76], 0.1 to 0.5 µM; under `CCC[C@H](NC(=O)[C@@H]1C[C@]2(CC(c3ccc(Cl)c(Cl)c3)=NO2)CN1C(=O)[C@@H](NC(=O)CC1CCOCC1)C(C)(C)C)C(=O)C(=O)NC1CC1` [Compound 78], 0.1 to 0.5 µM. In the case of `CCC[C@H](NC(=O)[C@@H]1C[C@@]2(CC(c3ccccc3)=NO2)CN1C(=O)c1ccc[nH]1)C(=O)C(=O)NC1CC1` [Compound 80], the Ki is more than 0.5 µM.

For the molecule `CCC[C@H](NC(=O)[C@@H]1C[C@]2(CC(c3cccc(Cl)c3)=NO2)CN1C(=O)[C@@H](NC(=O)CN1CCOCC1)C(C)(C)C)C(=O)C(=O)NC1CC1` [Compound 81], the Ki was more than 0.5 µM.

As for `CCC[C@H](NC(=O)[C@@H]1C[C@]2(CC(c3ccc4c(c3)OCO4)=NO2)CN1C(=O)[C@@H](NC(=O)CC1CCOCC1)C(C)(C)C)C(=O)C(=O)NC1CC1` [Compound 82], the Ki fell in the range of 0.1 to 0.5 µM. Under `CCC[C@H](NC(=O)[C@@H]1C[C@]2(CC(c3cccc(Cl)c3)=NO2)CN1C(=O)[C@@H](NC(=O)O[C@H]1CCOC1)C(C)(C)C)C(=O)C(=O)NC1CC1` [Compound 83] stands 0.1 to 0.5 µM; under `CCC[C@H](NC(=O)[C@@H]1C[C@]2(CC(c3cccc(Cl)c3)=NO2)CN1C(=O)[C@@H](NC(=O)OCCF)C(C)(C)C)C(=O)C(=O)NC1CC1` [Compound 85], 0.1 to 0.5 µM. For the molecule `CCC[C@H](NC(=O)[C@@H]1C[C@]2(CC(c3cccc(Cl)c3)=NO2)CN1C(=O)[C@@H](NC(=O)CC1CCOCC1)C(C)(C)C)C(=O)C(=O)NC1CC1` [Compound 92], the Ki was in the range of 0.1 to 0.5 µM. Under `CCC[C@H](NC(=O)[C@@H]1C[C@]2(CC(c3cccc(Cl)c3)=NO2)CN1C(=O)[C@@H](NC(=O)NCC(N)=O)C(C)(C)C)C(=O)C(=O)NC1CC1` [Compound 94] stands less than 0.1 µM; under `CCC[C@H](NC(=O)[C@@H]1C[C@]2(CC(c3cc(F)cc(Cl)c3)=NO2)CN1C(=O)[C@@H](NC(=O)CC1CCCCC1)C(C)(C)C)C(=O)C(=O)NC1CC1` [Compound 95], 0.1 to 0.5 µM. Under `CCC[C@H](NC(=O)[C@@H]1C[C@]2(CC(c3ccccc3)=NO2)CN1C(=O)[C@@H](NS(=O)(=O)c1cccc2ccccc12)C(C)(C)C)C(=O)C(=O)NC1CC1` [Compound 101] stands more than 0.5 µM; under `CCC[C@H](NC(=O)[C@@H]1C[C@]2(CC(c3cccc(Cl)c3)=NO2)CN1C(=O)[C@@H](NC(=O)Cc1ccc(C)c(F)c1)C(C)(C)C)C(=O)C(=O)NC1CC1` [Compound 102], 0.1 to 0.5 µM. The result for `CCC[C@H](NC(=O)[C@@H]1C[C@]2(CC(c3cccc(Cl)c3)=NO2)CN1C(=O)[C@@H](NC(=O)NCC)C1CCCCC1)C(=O)C(=O)NC1CC1` [Compound 103] reads 0.1 to 0.5 µM; that for `CCC[C@H](NC(=O)[C@@H]1C[C@]2(CC(c3cc(F)cc(F)c3)=NO2)CN1C(=O)[C@@H](NC(=O)O[C@H]1CCOC1)C(C)(C)C)C(=O)C(=O)NC1CC1` [Compound 106], more than 0.5 µM; that for `CCC[C@H](NC(=O)[C@@H]1C[C@]2(CC(c3ccccc3)=NO2)CN1C(=O)[C@@H](NC(=O)NCc1ccccc1)C(C)(C)C)C(=O)C(=O)NC1CC1` [Compound 107], 0.1 to 0.5 µM. `CCC[C@H](NC(=O)[C@@H]1C[C@]2(CC(c3cccc(Cl)c3)=NO2)CN1C(=O)[C@@H](NC(=O)[C@H]1CC[C@@H](OC)CC1)C(C)(C)C)C(=O)C(=O)NC1CC1` [Compound 108]: the Ki was 0.1 to 0.5 µM.

Regarding `CCC[C@H](NC(=O)[C@@H]1C[C@]2(CC(c3ccc(Cl)c(C)c3)=NO2)CN1C(=O)[C@@H](NC(=O)O[C@H]1CCOC1)C(C)(C)C)C(=O)C(=O)NC1CC1` [Compound 109], the Ki is less than 0.1 µM. Under `CCC[C@H](NC(=O)[C@@H]1C[C@]2(CC(c3cc(Cl)c(OC)cc3OC)=NO2)CN1C(=O)[C@@H](NC(=O)OCc1ccccc1)C(C)(C)C)C(=O)C(=O)NC1CC1` [Compound 110] stands 0.1 to 0.5 µM; under `CCC[C@H](NC(=O)[C@@H]1C[C@]2(CC(c3cccc(Cl)c3)=NO2)CN1C(=O)[C@@H](NC(=O)OCCc1ccc(F)cc1)C(C)(C)C)C(=O)C(=O)NC1CC1` [Compound 118], more than 0.5 µM; under `CCC[C@H](NC(=O)[C@@H]1C[C@]2(CC(c3cccc(Cl)c3)=NO2)CN1C(=O)[C@@H](NC(=O)NCc1cccc(F)c1)C(C)(C)C)C(=O)C(=O)NC1CC1` [Compound 122], 0.1 to 0.5 µM. Under `CCC[C@H](NC(=O)[C@@H]1C[C@]2(CC(c3cccc(Cl)c3)=NO2)CN1C(=O)[C@@H](NC(=O)NCC)C(C)(C)C)C(=O)C(=O)NC1CC1` [Compound 123] stands less than 0.1 µM.
